US20230065953A1, “NOVEL HETEROARYL-TRIAZOLE COMPOUNDS AS PESTICIDES” (Bayer Aktiengesellschaft, priority 2019, published 2023)

Key:
Type in all cases: in vivo
[1] = test system: Rhipicephalus microplus larvae (strain Parkhurst, resistant against synthetic pyrethroids); assay: Rhipicephalus (Boophilus) microplus in-vitro contact test, larval cattle tick; conditions: 5 μg/cm^2 (=500 g/ha), after 48 hours, read-out: efficacy (larvae dead or moribund)
How it was run: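 Efficacy is read at 48 h from negative geotactic behaviour after larvae are patted to the tube bottom, expressed as percentage dead or moribund. Larvae (20-50) sit in glass tubes whose walls carry an evaporated acetone film of compound (900 ppm corresponds to 5 μg/cm^2), kept at 27° C., 85% relative humidity.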

[2] = test system: adult engorged female ticks (Rhipicephalus microplus); assay: Rhipicephalus (Boophilus) microplus injection test; conditions: 168 h, egg deposition after 7 days, read-out: efficacy (infertile eggs); for pest or weed control at 0.004 mg: 4 μg/animal
How it was run: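 Five adult engorged female ticks each injected into the abdomen with 1 μL of compound in DMSO, then kept in a climate chamber. Fertile egg deposition assessed after 7 days, with unclear eggs held until hatching around 42 days; efficacy 100% means all eggs infertile, 0% all fertile.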

[3] = test system: adult cat fleas (Ctenocephalides felis); assay: Ctenocephalides felis in-vitro contact test, adult cat flea; conditions: 5 μg/cm^2 (=500 g/ha), after 48 hours
How it was run: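 After 48 h of room-temperature exposure in tubes whose walls carried dried compound residue (5 μg/cm^2, from 900 ppm acetone solution), adult cat fleas (5-10 per tube) were heat-challenged at 45-50° C up to 5 min. Fleas unable to climb away were counted dead or moribund, expressed as % efficacy.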

[4] = test system: adult unfed cat fleas (Ctenocephalides felis); assay: Ctenocephalides felis oral test; conditions: 48 h
How it was run: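 About 20 adult unfed fleas fed through parafilm on cattle blood containing compound (DMSO stock diluted in blood), blood held at 37 °C and fleas at room temperature. Mortality (%) scored after 2 days.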

[5] = test system: larvae of the banded cucumber beetle (Diabrotica balteata); assay: Diabrotica balteata spray test; conditions: 168 h, 100 g/ha (=32 μg/well), wheat seeds, after 7 days, read-out: efficacy (seedling growth)
How it was run: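 Efficacy in % was read 7 days after infesting with 10-20 larvae per unit. Before infestation, 1-day-germinated wheat seedlings (5 per well) were sprayed with the active ingredient, formulated in acetone and dimethylformamide plus emulsifier and diluted with water containing emulsifier.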

[6] = test system: green peach aphid (Myzus persicae); assay: Myzus persicae oral test; conditions: 120 h
How it was run: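 Compound was dissolved in acetone, diluted with water and mixed into IPL41 insect medium with sugar under a parafilm seal. A mixed aphid population fed through the parafilm, and mortality (%) was scored after 5 days.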

[7] = test system: fall armyworm larvae (Spodoptera frugiperda); assay: Spodoptera frugiperda spray test (maize leaf sections); conditions: 168 h
How it was run: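 Percent kill of Spodoptera frugiperda caterpillars read at day 7. Larvae placed on dried Zea mays leaf pieces previously sprayed with test preparation, made from acetone plus DMF and diluted with emulsifier-containing water (1000 ppm).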

[8] = test system: adult mosquitoes Aedes aegypti strain MONHEIM; assay: Aedes aegypti test (AEDSAE surface treatment & contact assay); conditions: 24 hours after contact, read-out: efficacy (mortality); for mortality at 4 mg/m2: surface concentration 4 mg/m^2, 30 min exposure; for mortality at 20 mg/m2: surface concentration 20 mg/m^2, 30 min exposure
How it was run: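 Test compound in acetone (2 mg/ml) with 2000 ppm rapeseed oil methyl ester was dried onto a glazed tile. Adult Aedes aegypti MONHEIM were exposed to the treated surface for 30 minutes. Percent mortality was scored 24 hours after contact.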

[9] = test system: adult mosquitoes Anopheles funestus strain FUMOZ-R; assay: Anopheles funestus test (ANPHFU surface treatment & contact assay); conditions: 24 hours after contact, read-out: efficacy (mortality); for mortality at 4 mg/m2: surface concentration 4 mg/m^2, 30 min exposure; for mortality at 20 mg/m2: surface concentration 20 mg/m^2, 30 min exposure
Experimental: Anopheles funestus Test (ANPHFU Surface Treatment & Contact Assay) • Solvent: Aceton+2000 ppm rapeseed oil methyl ester (RME)
In order to produce a sufficient, active ingredient containing solution it is necessary to solve the test compound in the solvent-mix (acetone at 2 mg/ml/RME 2000 ppm). This solution is pipetted onto a glazed tile and after evaporation of the acetone, adult mosquitoes of the species Anopheles funestus strain FUMOZ-R (Hunt et al., Med. Vet. Entomol. 2005 September; 19(3): 271-275) are placed onto the dried surface. The exposure time is 30 minutes.
Mortality in percent (%) is determined 24 hours after contact of the insects to the treated surface. 100% mortality means that all tested insects are dead, whereas 0% means that no insect died.

[10] = test system: caterpillars of the fall army worm (Spodoptera frugiperda); assay: Spodoptera frugiperda spray test (cotton leaves); conditions: 168 h, after 7 days
Experimental: Spodoptera frugiperda—spray test • Solvent: 14 parts by weight of dimethylformamide • Emulsifier: alkylaryl polyglycol ether
(§1) To produce a suitable preparation of active compound, 1 part by weight of active compound is mixed with the stated amount of solvent and is diluted with water, containing an emulsifier concentration of 1000 ppm, to the desired concentration. Further test concentrations are prepared by dilution with emulsifier containing water. Ammonium salt and/or penetration enhancer in a dosage of 1000 ppm are added to the desired concentration if necessary.
Cotton leaves (Gossypium hirsutum) are treated by being sprayed with the preparation of the active compound of the desired concentration and are infested with caterpillars of the fall army worm (Spodoptera frugiperda).
After 7 days mortality in % is determined. 100% means all the caterpillars have been killed and 0% means none of the caterpillars have been killed.

[11] = test system: adult brown dog ticks (Rhipicephalus sanguineus); assay: Rhipicephalus sanguineus in-vitro contact test with adult brown dog ticks; conditions: 5 μg/cm^2 (=500 g/ha), after 48 hours, read-out: efficacy (ticks dead or moribund)
How it was run: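 Read-out: % efficacy as dead or moribund ticks, judged 48 h after exposure by failure to climb away from a 45-50° C heating plate within 5 min. Tubes were coated with acetone solution (900 ppm = 5 μg/cm^2 surface dose) and held 5-10 adults each at room temperature.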

[12] = test system: green peach aphid (Myzus persicae); assay: Myzus persicae spray test; conditions: foliar, 120 h, Chinese cabbage leaf disks, after 5 days
How it was run: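 Percent mortality read 5 days after spraying, where 100% is total kill and 0% none. The spray contained compound in acetone plus dimethylformamide, diluted with 1000 ppm emulsifier water. It was applied to Brassica pekinensis leaf disks carrying mixed-instar green peach aphids.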

[13] = test system: larvae of the southern green stink bug (Nezara viridula); assay: Nezara viridula spray test; conditions: in Hordeum vulgare, 96 h
How it was run: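 Mortality (%) of stink bug larvae on treated barley (Hordeum vulgare) was scored 4 days after infestation. Test solutions came from an acetone/DMF concentrate diluted with water containing 1000 ppm emulsifier and were sprayed onto plants before larvae were added.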

[14] = test system: brown planthopper (Nilaparvata lugens); assay: Nilaparvata lugens spray test; conditions: 96 h, rice plants, after 4 days
Experimental: Nilaparvata lugens—Spray Test • Solvent: 78.0 parts by weight of acetone • 1.5 parts by weight of dimethylformamide • Emulsifier: alkylarylpolyglycol ether
as §1, with “solvents” for “solvent”, “water.” for “water. Ammonium salt and/or penetration enhancer in a dosage of 1000 ppm are added to the desired concentration if necessary.”
Rice plants (Oryza sativa) are sprayed with a preparation of the active ingredient of the desired concentration and the plants are infested with the brown planthopper (Nilaparvata lugens).
After 4 days mortality in % is determined. 100% means all planthoppers have been killed and 0% means none of the planthoppers have been killed.

[15] = test system: adult flies Musca domestica strain WHO-N; assay: Musca domestica test (MUSCDO surface treatment & contact assay); conditions: 24 hours after contact, read-out: efficacy (mortality); for mortality at 4 mg/m2: surface concentration 4 mg/m^2, 30 min exposure; for mortality at 20 mg/m2: surface concentration 20 mg/m^2, 30 min exposure
How it was run: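 Percent kill read 24 h post-contact, after adult flies (strain WHO-N) spent 30 min on a glazed tile treated with test solution (acetone, 2 mg/ml, plus 2000 ppm rapeseed oil methyl ester) and dried.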

[16] = test system: cattle ticks (Rhipicephalus microplus) strain Parkhurst, SP-resistant; assay: Rhipicephalus (Boophilus) microplus dip test; conditions: 100 ppm, egg deposition after 7 days
Experimental: Rhipicephalus (Boophilus) Microplus—Dip Test
Test animal: cattle ticks (Rhipicephalus microplus) strain Parkhurst, SP-resistant
Solvent: dimethyl sulfoxide
To produce a suitable preparation of active compound, 10 mg of active compound are dissolved in 0.5 mL solvent, and the concentrate is diluted with water to the desired concentration.
This compound solution is pipetted into tubes. 8-10 engorged, adult, female cattle ticks (Rhipicephalus microplus) are placed in perforated tubes. These tubes are immersed in the aqueous compound solution until the ticks are completely moistened. After the liquid has drained off, the ticks are transferred to a filter paper in a plastic tray and stored in a climate chamber.
After 7 days egg deposition of fertile eggs is monitored. Eggs where fertility is not visible are stored in a climate chamber till hatching after about 42 days. An efficacy of 100% means all eggs are infertile; 0% means all eggs are fertile.

| Structure (SMILES) | pest or weed control at 5 µg/cm2 [1] [%] | pest or weed control at 0.004 mg [2] [%] | efficacy (fleas dead or moribund) [3] [%] | mortality at 100 ppm [4] [%] | pest or weed control at 32 µg/disc, 100 g/ha [5] [%] | mortality at 4 ppm [6] [%] | mortality at 100 g/ha [7] [%] | mortality at 20 mg/m2 [8] [%] | mortality at 20 ppm [10] [%] | pest or weed control at 5 µg/cm2, 500 g/ha [11] [%] | mortality at 4 mg/m2 [15] [%] | mortality at 20 mg/m2 [15] [%] | other results |
| --- | --- | --- | --- | --- | --- | --- | --- | --- | --- | --- | --- | --- | --- |
| C[C@H](NC(=O)c1cc(Cl)cc(S(C)(=O)=O)c1)c1ncnn1-c1ncc(C#N)s1 [I-36] | 90 | 100 | 100 | 100 | 100 | 100 | 100 | 80 to 100 |  |  |  |  | pest or weed control at 0.02 mg ([2]; 20 μg/animal): 100%; mortality at 4 mg/m2 [8]: 80 to 100%; mortality at 4 mg/m2 [9]: 80 to 100% |
| C[C@H](NC(=O)c1cc(OC(F)(F)F)cc(S(C)(=O)=O)c1)c1ncnn1-c1ncc(C#N)s1 [I-93] |  |  |  |  |  |  |  |  | 100 |  |  |  |  |
| C[C@H](NC(=O)c1cc(OC(F)(F)F)cc(C(F)F)c1)c1ncnn1-c1ncc(C#N)s1 [I-98] | 100 |  | 100 |  |  |  |  |  | 100 | 100 |  |  |  |
| C[C@H](NC(=O)c1cc(C(F)(F)F)cc(C(F)(F)F)c1)c1ncnn1-c1ncc(C(=O)N(C)C)s1 [I-64] | 100 |  | 100 |  | 100 |  | 100 | 80 to 100 |  | 100 | 90 to 100 | 80 to 100 | mortality at 100 g/ha [12]: 100%; mortality at 500 g/ha [13]: 100%; mortality at 100 g/ha ([14]; 100 g/ha): 90%; mortality at 500 g/ha ([14]; 500 g/ha): 90%; mortality at 20 mg/m2 [9]: 80 to 100% |
| CC(NC(=O)c1cc(OC(F)(F)F)cc(C(F)F)c1)c1ncnn1-c1ncc(C#N)s1 (stereo not shown) [I-26] | 100 | 100 | 100 | 100 | 100 | 100 | 100 | 80 to 100 |  |  | 90 to 100 | 80 to 100 | mortality at 20 mg/m2 [9]: 80 to 100% |
| CC(NC(=O)c1cc(OC(F)F)cc(OC(F)F)c1)c1ncnn1-c1ncc(C#N)s1 (stereo not shown) [I-31] | 100 | 100 |  | 100 | 100 | 100 | 100 | 80 to 100 |  | 100 | 90 to 100 | 80 to 100 | mortality at 100 g/ha [12]: 90%; mortality at 4 mg/m2 [8]: 80 to 100%; mortality at 4 mg/m2 [9]: 80 to 100% |
| C[C@H](NC(=O)c1cc(C(F)F)cc(C(F)F)c1)c1ncnn1-c1ncc(C#N)s1 [I-97] | 100 |  | 100 |  |  |  |  |  | 100 | 100 |  |  |  |
| Cc1nc([C@H](C)NC(=O)c2cc(Br)cc(C(F)(F)F)c2)n(-c2ncc(C#N)s2)n1 [I-14] | 100 | 100 |  | 100 | 100 | 100 | 100 | 80 to 100 |  | 100 | 90 to 100 | 80 to 100 | efficacy (infertile eggs) [16]: 100% |
| C[C@H](NC(=O)c1cc(OC(F)F)cc(OC(F)F)c1)c1ncnn1-c1ncc(C#N)s1 [I-94] | 100 |  | 100 |  |  |  |  |  | 100 | 100 |  |  |  |
| C[C@H](NC(=O)c1cc(Cl)cc(OC(F)(F)F)c1)c1ncnn1-c1ncc(C#N)s1 [I-96] |  |  |  |  |  |  |  |  | 100 |  |  |  |  |
